Assay results: BindingDB's records for doi:10.1080/14756360701546413 (Dumlupinar University, 2008)

Biological target: Glutathione-disulfide reductase (Escherichia coli O157:H7, UniProt A0A0H3JIZ9)
Assay: Enzyme Assay
Protocol: The enzyme activities in the absence of drugs or chemicals were taken as 100%. For each drug or chemical, an activity%-(drug) graph was drawn and drug concentrations producing 50% inhibition were calculated for the inhibitors.

Sequence of Glutathione-disulfide reductase (A0A0H3JIZ9 whole entry): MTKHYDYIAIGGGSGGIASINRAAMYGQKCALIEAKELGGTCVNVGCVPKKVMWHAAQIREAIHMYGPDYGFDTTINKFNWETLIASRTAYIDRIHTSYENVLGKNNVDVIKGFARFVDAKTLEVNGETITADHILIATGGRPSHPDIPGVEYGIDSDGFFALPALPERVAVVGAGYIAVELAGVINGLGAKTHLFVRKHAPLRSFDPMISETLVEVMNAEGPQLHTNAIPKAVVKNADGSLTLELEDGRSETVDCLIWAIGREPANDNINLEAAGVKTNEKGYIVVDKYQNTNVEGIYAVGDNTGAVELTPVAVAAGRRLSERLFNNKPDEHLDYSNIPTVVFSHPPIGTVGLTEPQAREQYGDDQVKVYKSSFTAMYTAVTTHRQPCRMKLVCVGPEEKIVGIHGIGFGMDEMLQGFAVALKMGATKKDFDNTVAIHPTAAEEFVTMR

Row | SMILES | IC50 | Ki
1 | CC(CCC(=O)Nc1nnc(S(N)(=O)=O)s1)C1CCC2C3CCC4CC(O)CCC4(C)C3CCC12C (centres undefined) [Sulfonamide derivative, 1] | 47.1 µM | 72.3 µM
2 | CC(CCC(=O)Nc1nnc(S(N)(=O)=O)s1)C1CCC2C3C(O)CC4CC(O)CCC4(C)C3CCC12C (centres undefined) [Sulfonamide derivative, 2] | 4.5 µM | 6.1 µM
